Experimental data from ChEMBL document CHEMBL1201862, “PubChem BioAssay data set” (2004).
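Step 1: Grow cells in 96-well plates. Step 2: Expose to compound for 48 hours at 5 concentrations. Step 3: Interpolate endpoints linearly; if unreached, use highest concentration. GI50: concentration for 50% inhibition of growth.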 Active and inactive are the calls of the source. Rule as the data show it: active = GI50 up to about 1.1 µM and inactive = higher. Positions of bridges follow the written chain, without caps; N, C: chain ends. Non-standard residues stand in square brackets, D forms with d. Residues, ends and D or L forms follow the SMILES beside them. Aib = CC(C)(N)C(=O)O; βAla = NCCC(=O)O

Tests used:
MDA-N = experiment: NCI anticancer screen, dose series, 48 h
Hs-578T = experiment: NCI anticancer screen, dose series, 48 h

Row | Compound | GI50 (MDA-N) | GI50 (Hs-578T)
1 | COc1ccc2c(c1)C1Oc3ccccc3CC1(O)CO2 (stereo not drawn) | > 100 µM (inactive) | 
2 | O=C(NCCCNCCNC(=O)c1cc(-c2ccccc2)nc2ccccc12)c1cc(-c2ccccc2)nc2ccccc12 | 1.87 µM (inactive) | 2.37 µM (inactive)
3 | CCCc1cc(COC)c(C#N)c(O)n1 | > 100 µM (inactive) | > 100 µM (inactive)
4 | CCCCC/C(C=O)=C\c1ccccc1 |  | > 100 µM (inactive)
5 | CS/C(=N\S(=O)(=O)c1ccc(Cl)cc1)NCCCCN/C(=N/S(=O)(=O)c1ccc(Cl)cc1)SC | > 100 µM (inactive) | 
6 | O=c1[nH]c2cc(C(F)(F)F)ccc2nc1Cc1ccccc1 |  | 34.9 µM (inactive)
7 | CCc1nc(N)nc(N)c1-c1ccc2nnn(O)c2c1 | > 100 µM (inactive) | > 100 µM (inactive)
8 | CC(C)(C)C1CCC2c3c([nH]c4ccccc34)C3C(=O)N(c4ccccc4[N+](=O)[O-])C(=O)C3C2C1 (stereo not drawn) | 13.2 µM (inactive) | 14.4 µM (inactive)
9 | Cc1ccc(S(=O)(=O)N2CCSCCSCCSCCN(S(=O)(=O)c3ccc(C)cc3)CC2)cc1 | > 100 µM (inactive) | > 100 µM (inactive)
10 | COc1ccc2c3c1O[C@H]1C(=O)C=CC4(n5[nH]c(=O)n(-c6ccccc6)c5=O)C(C2)N(C)CCC314 (stereo partly drawn) | > 100 µM (inactive) | > 100 µM (inactive)
11 | CN1C(=O)c2ccc3ccccc3c2C1=O | > 100 µM (inactive) | 73.1 µM (inactive)
12 | COc1ccc(Nc2nc(N)c(C(=O)c3ccco3)s2)cc1 | 4.11 µM (inactive) | 22.4 µM (inactive)
13 | Nc1nc(N)c2nc(CNc3ccc(C(=O)NC(CCC(=O)O)C(=O)O)cc3F)cnc2n1 (stereo not drawn) | < 0.01 µM (active) | > 100 µM (inactive)
14 | Cc1coc2c1C(OC(=O)C(C)C)C1(C)C(C)CCC(O)C1C2=O (stereo not drawn) | > 100 µM (inactive) | > 100 µM (inactive)
15 | O=C1/C(=C/c2ccc([N+](=O)[O-])cc2)CNC/C1=C\c1ccc([N+](=O)[O-])cc1 | 6.27 µM (inactive) | 4.36 µM (inactive)
16 | CC1(C)NC(=O)C(NC(=O)C(N)CC(=O)O)CCCCNC(=O)CCNC1=O (stereo not drawn) (H-DK[Aib][βAla]; lactam 2-C; configuration not given here) | > 100 µM (inactive) | > 100 µM (inactive)

Row | Compound | GI50 (MDA-N) | GI50 (Hs-578T)
17 | C[N+]1(C)C(c2ccccc2)C(=O)O[B@-]1(F)c1ccccc1 (stereo partly drawn) | > 100 µM (inactive) | 
18 | COC(=O)c1ccccc1C1CN=NC12Cc1cccc(C)c1C2=O (stereo not drawn) | 46.7 µM (inactive) | 40.4 µM (inactive)
19 | CCOC(=O)Cn1c(C(F)(F)F)nc2nc(Cl)c(Cl)nc21 | 37.2 µM (inactive) | 25 µM (inactive)
20 | CC(C)NC(=O)OCCN=C1c2ccccc2C(Br)C(Br)c2ccccc21 (stereo not drawn) | 5.85 µM (inactive) | 8.41 µM (inactive)
21 | C=CCc1cccc2cc(C(=O)NCc3ccccc3)c(=N)oc12 | 41.4 µM (inactive) | 18.8 µM (inactive)
22 | O=c1c2ccccc2c2c1c1c3ccccc3c(=O)c1c1c3ccccc3c(=O)c21 | > 100 µM (inactive) | > 100 µM (inactive)
23 | CCOP(=O)(Nc1ccc(-c2ccccc2)cc1)OCC | 88.9 µM (inactive) | > 100 µM (inactive)
24 | CCC1([N+](=O)[O-])CC2C=CC1C2 (stereo not drawn) | > 100 µM (inactive) | > 100 µM (inactive)
25 | CCOP(=O)(OCC)/C(=C/n1c(=S)[nH]c2ccccc21)C(=O)OC | > 100 µM (inactive) | 95.1 µM (inactive)
26 | Oc1ccc(-c2ccccc2)nn1 | > 100 µM (inactive) | > 100 µM (inactive)
27 | O=C([O-])C(O)C(O)C(O)C(O)C(=O)O.[K+] (stereo not drawn) | > 100 µM (inactive) | 
28 | CCOC(=O)C1=C(C(=O)c2ccc(C)cc2)C(c2cccc([N+](=O)[O-])c2)C(C(=O)c2ccc(C)cc2)=C(C(=O)OCC)N1 |  | 22 µM (inactive)
29 | CC(=O)OC1COC(n2nc(N)nc2C)C(OC(C)=O)C1OC(C)=O (stereo not drawn) | > 100 µM (inactive) | 
30 | NC1=CN(Cc2ccccc2)C2=N/C(=C\c3ccccc3)C(=O)N12 |  | > 100 µM (inactive)
31 | COc1ccc(/N=N/c2c(C)c(C#N)c(=S)n(C3OC(COC(C)=O)C(OC(C)=O)C(OC(C)=O)C3OC(C)=O)c2-c2ccccc2)cc1 (stereo not drawn) | 9.1 µM (inactive) | 
32 | C=CCC1(Sc2ccccn2)Sc2ccc3ccccc3c2-c2c(ccc3ccccc23)S1 |  | > 100 µM (inactive)
